According to patent US20200268753A1, “PERK AND IRE-1A INHIBITORS AGAINST NEURODEVELOPMENTAL DISORDERS” (priority 2017, published 2020):

Assays:
ZIKV [1] = test: ZIKV-induced microcephaly and apoptosis after intracerebroventricular injection in mouse embryos (E12.5, analysed E18.5); assay type: in vivo; details: for ZIKV-induced microcephaly / microcephalic phenotype: injected with ZIKV ICV at E12.5, E18.5 brains, vs vehicle
[2] = system: UPR effectors (PERK-ATF4 arm, IRE-1/Xbp1); test: qRT-PCR of UPR effector expression levels in ZIKV-infected embryonic mouse brains; assay type: in vivo
Excerpt: (§1) To test the efficacy of Salubrinal and ISRIB (PERK inhibitors) in decreasing the expression levels of UPR effectors after ZIKV infection we intracerebroventricularly injected ZIKV+Salubrinal (or ISRIB) in E12.5 mouse cortices and collected brains at E18.5. These samples were stored in Trizol (Invitrogen) and RNA was extracted according to manufacturer instructions. RNA was then retro-transcribed and cDNA was used to perform qRT-PCR to quantify ZIKV and UPR effectors levels in each sample. […] The expression levels of several PERK pathway effectors were analyzed: mATF4 (FIG. 6B), mATF5 (FIG. 6C), mCHAC1 (FIG. 6D). […] (Kruskal-Wallis test, *p<0.05, ** p<0.005).
(§2) To test the efficacy of Resveratrol (IRE1a inhibitor) in decreasing the expression levels of UPR effectors after ZIKV infection we intracerebroventricularly injected ZIKV+Resveratrol in E12.5 mouse cortices and collected brains at E18.5. These samples were stored in Trizol (Invitrogen) and RNA was extracted according to manufacturer instructions. RNA was then retro-transcribed and cDNA was used to perform qRT-PCR to quantify ZIKV and UPR effectors levels in each sample. […] The expression levels of several PERK pathway effectors were analyzed: mATF4 (FIG. 7B), mATF3 (FIG. 7C), mXbp1 spliced/unspliced and mXbp1 tot (FIG. 7D), mChop (FIG. 7E).
Total RNA was obtained from micro-dissected embryonic mouse brains, and neuronal progenitors seeded in 6 well-plate culture dishes after application of Trizol according to the manufacturer's protocol (Ambion-Life Technologies, 15596018).
The quantity and quality of RNA were assessed by NanoDrop 1000 (Nano-Drop Technologies) before cDNA synthesis by SuperScript III reverse transcriptase (Invitrogen), as used according to the manufacturer's instructions. The resulting cDNA was used for quantitative PCR, using Faststart Universal SYBR Green Master (Roche) in an Applied Biosystem 7900HT Fast Real-Time PCR detection system (Applied Biosystems, Foster city, USA). The following genes of interest (GOI) were normalized to the reference genes β-actin, Glyceraldehyde-3-Phosphate dehydrogenase (GAPDH), hypoxanthine phosphoribosyltransferase 1 (HPRT1), and 36b4 ribosomal protein (36b4). Tested genes were GAPDH, HPRT1, 36B4, ACTIN, ZIKA, Atf4, Atf3, Atf5, Chac1, Chop, Sesn2, Tbr2, Neurod6, Tubb3, hPDI, Slc7a3, MX1, TLR3, HRD1, OCT4, NESTIN, PAX6, SOX1 and mPDI.

ZIKV [3] = test: qRT-PCR quantification of ZIKV copies in ICV-injected embryonic mouse brains; assay type: in vivo; details: for number of ZIKV copies: ICV co-injection with ZIKV at E12.5, brains at E18.5, vs ZIKV+DMSO, Kruskal-Wallis test
Excerpt: as §1, §2
The number of Zika particles in the samples analyzed by qRT-PCR (see above) was calculated as previously described (Lanciotti et al, 2008). Briefly, a standard curve was created by performing serial dilutions of a plasmid containing 76-bp long sequence from the Zika genome (from nt 1,086 to 1,162; GCF_000882815.3, as indicated in Nature Neurosciences (2018) Gladwyn et al.) and querying these dilutions by qRT-PCR analysis.
This standard curve allows the conversion of Cp of samples queried for Zika virus (as described above) into N^o of Zika copies/a L. We used the following formula to link this quantification to the amount of RNA retrotranscribed for the analysis of each sample: […]
Finally, the N^o of copies/μg RNA was divided for the relative concentration of each sample analyzed by qRT-PCR (since for each analyzed gene in this study we performed a relative quantification compared to the controls of the same experiment). The relative concentration of each sample is automatically calculated by the LightCycler480 and its accompanying software.

ZIKV [4] = test: Neurogenic balance after intracerebroventricular ZIKV injection and in utero GFP electroporation of mouse embryos; assay type: in vivo; details: co-administered with ZIKV ICV at E12.5, second injection at electroporation; E14.5; vs Mock-DMSO and Mock-PERKi
Method: To test whether the deregulation of UPR induced by ZIKV-infection results in the impairment of this neurogenic balance, we performed ICV injection of ZIKV in E12.5 mouse brains, followed by in utero electroporation of GFP-expressing plasmids one day later to fate-map APs at E14.5 (APs, immature IPs and IPs, neurons) (FIGS. 3A-B). The phenotype of the “direct progeny” of targeted APs was then assessed by immunohistochemistry (FIGS. 3B-D). In order to characterize the fate of GFP+ cells, we subdivided them into APs (Sox2+, Tbr2− or Tbr2−, Tbr1−), immature IPs (Sox2+, Tbr2+ or Tbr2+, Tbr1−), IPs (Sox2−, Tbr2+ or Tbr2+, Tbr1+), or neurons (Sox2−, Tbr2− or Tbr2−, Tbr1+).
To assess if ZIKV directly impacts the neurogenic balance through UPR deregulation in GFP labeled APs, we co-injected GSK2656157 (a PERK inhibitor, named PERKi) with ZIKV into the lateral ventricles of E12.5 embryos and repeated a second PERKi injection at the time of electroporation.
Embryonic (E) 14.5, E16.5 and E18.5 mouse brains were dissected in 0.1M phosphate-buffered saline pH7.4 (PBS), and were fixed in 4% paraformaldehyde (PFA in PBS) for one hour at room temperature, whereas human neural stem cells (hNSCs) were fixed in 4% PFA at 4° C. for 10 minutes. […]

ZIKV [5] = test: Intraplacental (IPL) ZIKV injection in pregnant NMRI mice, cortical defects at E18.5; assay type: in vivo, mouse; details: intraplacental ZIKV at E12.5, co-injection
[6] = high doses, ICV co-injection with ZIKV at E12.5, brains at E18.5, vs ZIKV+DMSO
[7] = ZIKV ICV at E12.5, E18.5, compared to vehicle treatment
[8] = single injection of 50M at time of infection (E12.5), E18.5

Question: Which results are given for `Cc1cc(=O)oc2c(C=O)c(O)ccc12` [4μ8C]?
Answer: ZIKV-induced microcephaly / microcephalic phenotype (ZIKV [1]): rescued the microcephalic phenotype; activation of the PERK-ATF4 UPR arm ([2]; ZIKV-infected mouse brains): prevented activation

Question: `Oc1ccc(C=Cc2cc(O)cc(O)c2)cc1` [Resveratrol] was tested. Which “number of ZIKV copies” value (ZIKV [3]) did it give?
Answer: Its value is “unaffected compared to controls”.

Question: What about the mATF3 expression level [2, 6] of the same molecule?
Answer: Its mATF3 expression level is “marked decrease”.

Question: And the mATF4 expression level [2, 6]?
Answer: The mATF4 expression level was “marked decrease”.

Question: And the mChop expression level [2, 6]?
Answer: Its mChop expression level is “marked decrease”.

Question: How did the “number of ZIKV copies” value (ZIKV [3]) turn out when `O=C(COc1ccc(Cl)cc1)NC1CCC(NC(=O)COc2ccc(Cl)cc2)CC1` (centres unmarked) [ISRIB] was run?
Answer: The value was “unaffected compared to controls”.

Question: And the mATF4 expression level [2, 6]?
Answer: Its mATF4 expression level is “marked decrease”.

Question: And the mATF5 expression level [2, 6]?
Answer: The mATF5 expression level was “marked decrease”.

Question: What about the mCHAC1 expression level [2, 6] of the same molecule?
Answer: Its mCHAC1 expression level is “marked decrease”.

Question: With `Cc1cccc(CC(=O)N2CCc3c2ccc(-c2cn(C)c4ncnc(N)c24)c3F)n1` [PERKi] as the molecule, how does the “imbalance between direct and indirect neurogenesis (proportions of APs, newborn IPs, IPs and neurons)” value (ZIKV [4]) read?
Answer: Its value is “remarkably corrected the imbalance between direct and indirect neurogenesis”.

Question: What about the brain weight (ZIKV [1]; [7]) of the same molecule?
Answer: The brain weight was “significant improvement”.

Question: And the “cortical dimensions (brain width, length)” value (ZIKV [1]; [7])?
Answer: Its value is “significant improvement”.

Question: What about the “numbers of neurons sitting in different cortical layers” value (ZIKV [1]; [7]) of the same molecule?
Answer: The value was “significant improvement”.

Question: What about the “ZIKV-induced microcephaly / microcephalic phenotype” value (ZIKV [1]) of the same molecule?
Answer: The value was “reduced ZIKV-induced microcephaly”.

Question: What about the ER stress (ZIKV [1]; [8]) of the same molecule?
Answer: Its ER stress is “decreased”.

Question: What about the “apoptosis (ac-caspase 3)” value (ZIKV [1]; [8]) of the same molecule?
Answer: The value was “decreased”.

Question: And the “ZIKV-induced cortical defects (cortical thickness, neuronal apoptosis, cytoarchitecture)” value (ZIKV [5])?
Answer: The value was “rescued”.

Question: And the ZIKV particles (ZIKV [3]; ZIKV-infected mouse brains treated with PERKi)?
Answer: Its ZIKV particles is “not associated with a reduction”.

Question: How did the “number of ZIKV copies” value (ZIKV [3]) turn out when `O=C(/C=C/c1ccccc1)NC(NC(=S)Nc1cccc2cccnc12)C(Cl)(Cl)Cl` (centres unmarked) [Salubrinal] was run?
Answer: Its value is “unaffected compared to controls”.

Question: And the mATF4 expression level [2, 6]?
Answer: The mATF4 expression level was “marked decrease”.

Question: What about the mATF5 expression level [2, 6] of the same molecule?
Answer: The mATF5 expression level was “marked decrease”.

Question: What about the mCHAC1 expression level [2, 6] of the same molecule?
Answer: The mCHAC1 expression level was “marked decrease”.
